Patent publication US7420051B2, “Synthetic process for the manufacture of an ecteinaschidin compound” (Pharma Mar, S.A., priority 2000, dated 2008)

How the values were obtained:
Format in all cases: cell-based
[1] = test system: A-549 (monolayer culture of a human lung carcinoma); test: Cytotoxic activity screening, A-549 cells; conditions: Homo sapiens, A549, 72 h, three days of incubation, Crystal Violet, approximate IC50
Method: (§1) Cell Cultures. Cells were maintained in logarithmic phase of growth in Eagle's Minimum Essential Medium, with Earle's Balanced Salts, with 2.0 mM L-glutamine, with non-essential amino acids, without sodium bicarbonate (EMEM/neaa); supplemented with 10% Fetal Calf Serum (FCS), 10^−2 M sodium bicarbonate and 0.1 g/l penicillin-G+streptomycin sulfate.
(§2) A simple screening procedure has been carried out to determine and compare the antitumour activity of these compounds, using an adapted form of the method described by Bergeron et al (1984). The tumour cell line employed have been P-388 (suspension culture of a lymphoid neoplasm from DBA/2 mouse), A-549 (monolayer culture of a human lung carcinoma), HT-29 (monolayer culture of a human colon carcinoma) and MEL-28 (monolayer culture of a human melanoma).
(§3) A-549, HT-29 and MEL-28 were seeded into 16 mm wells at 2×10^4 cells per well in 1 ml aliquots of MEM 10FCS containing the indicated concentration of drug. A separate set of cultures without drug was seeded as control growth to ensure that cells remained in exponential phase of growth. All determinations were carried out in duplicate. After three days of incubation at 37° C., 10% CO2 in a 98% humid atmosphere, the wells were stained with 0.1% Crystal Violet. An approximately IC50 was determined by comparing the growth in wells with drug to the growth in wells control.

[2] = test system: MEL-28 (monolayer culture of a human melanoma); test: Cytotoxic activity screening, MEL-28 cells; conditions: SK-MEL-28, 72 h, three days of incubation, Crystal Violet, approximate IC50
Method: as §1, §2, §3

[3] = test system: P-388 (suspension culture of a lymphoid neoplasm from DBA/2 mouse); test: Cytotoxic activity screening, P-388 cells; conditions: Mus musculus, P388, 72 h, three days of incubation, approximate IC50
Method: as §1, §2
P-388 cell were seeded into 16 mm wells at 1×10^4 cells per well in 1 ml aliquots of MEM 5FCS containing the indicated concentration of drug. A separate set of cultures without drug was seeded as control growth to ensure that cells remained in exponential phase of growth. All determinations were carried out in duplicate.

[4] = test system: HT-29 (monolayer culture of a human colon carcinoma); test: Cytotoxic activity screening, HT-29 cells; conditions: Homo sapiens, HT-29, 72 h, three days of incubation, Crystal Violet, approximate IC50
Method: as §1, §2, §3

[5] = test system: DU-145; test: Cytotoxic activity screening, DU-145 cells; conditions: Homo sapiens, DU-145, DU-145 cells

Structure (SMILES)	IC50 [1] [µM]	IC50 [2] [µM]	IC50 [3] [µM]	IC50 [4] [µM]	IC50 [5] [µM]
COC1=C(C)C(=O)C2=C(C1=O)[C@H](CNC(=O)[C@H](C)NC(=O)OC(C)(C)C)N1C(C2)[C@H]2c3c(cc(C)c(OC)c3O)C[C@@H]([C@@H]1C#N)N2C (some centres unmarked)	> 0.15	> 0.15	0.15	0.15	
COCOc1c(OC)c(C)cc2c1[C@@H]1C3CC4=C(C(=O)C(OC)=C(C)C4=O)[C@H](CNC(=O)[C@H](C)NC(=O)OC(C)(C)C)N3[C@@H](C#N)[C@H](C2)N1C (some centres unmarked)	1.44	1.44	1.44	1.44	
COCOc1c(OC)c(C)cc2c1[C@@H]1C3CC4=C(C(=O)C(O)=C(C)C4=O)[C@H](CNC(=O)[C@H](C)NC(=O)OC(C)(C)C)N3[C@@H](C#N)[C@H](C2)N1C (some centres unmarked)	> 1.5	> 1.5	> 1.5	> 1.5	
COCOc1c(OC)c(C)cc2c1[C@@H]1C3Cc4c(O)c(C)c5c(c4[C@H](CNC(=O)[C@H](C)NC(=O)OC(C)(C)C)N3[C@@H](C#N)[C@H](C2)N1C)OCO5 (some centres unmarked)	1.4	1.4	1.4	1.4	
C=CCOc1c(C)c2c(c3c1CC1[C@H]4c5c(cc(C)c(OC)c5OCOC)C[C@@H]([C@H](C#N)N1[C@H]3CNC(=O)[C@H](C)NC(=O)OC(C)(C)C)N4C)OCO2 (some centres unmarked)	0.01	0.01	0.01	0.01	
C=CCOc1c(C)c2c(c3c1CC1[C@H]4c5c(cc(C)c(OC)c5O)C[C@@H]([C@H](C#N)N1[C@H]3CNC(=O)[C@H](C)N)N4C)OCO2 (some centres unmarked)	0.16	0.16	0.08	0.01	
C=CCOc1c(C)c2c(c3c1CC1[C@H]4c5c(cc(C)c(OC)c5O)C[C@@H]([C@H](C#N)N1[C@H]3CNC(=O)[C@H](C)NC(=S)Nc1ccccc1)N4C)OCO2 (some centres unmarked)	0.01	0.01	0.01	0.01	
C=CCOc1c(C)c2c(c3c1CC1[C@H]4c5c(cc(C)c(OC)c5O)C[C@@H]([C@H](C#N)N1[C@H]3CN)N4C)OCO2 (some centres unmarked)	0.019	0.019	0.019	0.019	
COc1c(C)cc2c(c1O)[C@@H]1C3[C@@H]4SCC(N)C(=O)OC[C@@H](c5c6c(c(C)c(OC(C)=O)c54)OCO6)N3[C@@H](C#N)[C@H](C2)N1C (some centres unmarked)	0.008	0.008	0.008	0.008	
COc1c(C)cc2c(c1O)[C@@H]1C3[C@@H]4SCC(=O)C(=O)OC[C@@H](c5c6c(c(C)c(OC(C)=O)c54)OCO6)N3[C@@H](C#N)[C@H](C2)N1C (some centres unmarked)	0.01	0.01	0.01	0.01	
COC1=C(C)C(=O)C2=C(C1=O)C(CNC(C)=O)N1C(C2)[C@H]2c3c(cc(C)c(OC)c3O)C[C@@H]([C@@H]1C#N)N2C (some centres unmarked)	0.005	0.005	0.005	0.005	
COc1c(C)cc2c(c1O)[C@@H]1C3Cc4c(OC(C)=O)c(C)c5c(c4[C@H](CNC(=O)CC(C)C)N3[C@@H](C#N)[C@H](C2)N1C)OCO5 (some centres unmarked)	0.001	0.0008	0.0008		0.001
COc1c(C)cc2c(c1O)[C@@H]1C3Cc4c(OC(C)=O)c(C)c5c(c4[C@H](CNC(=O)/C=C/c4cccc(C(F)(F)F)c4)N3[C@@H](C#N)[C@H](C2)N1C)OCO5 (some centres unmarked)	0.0001	0.0001	0.0001		
C=CCOc1c(C)c2c(c3c1CC1[C@H]4c5c(cc(C)c(OC)c5OCOC)C[C@@H]([C@H](C#N)N1[C@H]3COC(CSCC1c3ccccc3-c3ccccc31)NC(=O)OC(C)(C)C)N4C)OCO2 (some centres unmarked)	> 1			> 1	
COCOc1c(OC)c(C)cc2c1[C@@H]1C3CC4(O)C(=O)C(C)=C5OCOC5=C4[C@H](COC(CSCC4c5ccccc5-c5ccccc54)NC(=O)OC(C)(C)C)N3[C@@H](C#N)[C@H](C2)N1C (some centres unmarked)	> 1			> 1	
C=CCOc1c(C)c2c(c3c1CC1[C@H]4c5c(cc(C)c(OC)c5O)C[C@@H]([C@H](C#N)N1[C@H]3CO)N4C)OCO2 (some centres unmarked)	0.19	0.19	0.19	0.19	
C=CCOc1c(C)c2c(c3c1CC1[C@H]4c5c(cc(C)c(OC)c5O)C[C@@H]([C@H](C#N)N1[C@H]3COC(CSCC1c3ccccc3-c3ccccc31)NC(=O)OC(C)(C)C)N4C)OCO2 (some centres unmarked)	0.0055			0.0055	
C=CCOc1c(C)c2c(c3c1CC1[C@H]4c5c(cc(C)c(OC)c5OCOCCOC)C[C@@H]([C@H](C#N)N1[C@H]3COC(CSCC1c3ccccc3-c3ccccc31)NC(=O)OC(C)(C)C)N4C)OCO2 (some centres unmarked)	> 1			> 1	

Structure (SMILES)	IC50 [1] [µM]	IC50 [2] [µM]	IC50 [3] [µM]	IC50 [4] [µM]	IC50 [5] [µM]
COCCOCOc1c(OC)c(C)cc2c1[C@@H]1C3Cc4c(O)c(C)c5c(c4[C@H](COC(CSCC4c6ccccc6-c6ccccc64)NC(=O)OC(C)(C)C)N3[C@@H](C#N)[C@H](C2)N1C)OCO5 (some centres unmarked)	0.01			0.01	
COCCOCOc1c(OC)c(C)cc2c1[C@@H]1C3CC4(O)C(=O)C(C)=C5OCOC5=C4[C@H](COC(CSCC4c5ccccc5-c5ccccc54)NC(=O)OC(C)(C)C)N3[C@@H](C#N)[C@H](C2)N1C (some centres unmarked)	0.051			0.051	
COCCOCOc1c(OC)c(C)cc2c1[C@@H]1C3[C@@H]4SC[C@@H](NC(=O)OC(C)(C)C)C(=O)OC[C@@H](c5c6c(c(C)c(OC(C)=O)c54)OCO6)N3[C@@H](C#N)[C@H](C2)N1C (some centres unmarked)	0.012				
C=CCOc1c(C)c2c(c3c1CC1[C@H]4c5c(cc(C)c(OC)c5O)C[C@@H]([C@H](C#N)N1[C@H]3COC(CSCC1c3ccccc3-c3ccccc31)NC(=O)OCc1ccccc1)N4C)OCO2 (some centres unmarked)	0.11			0.11	
C=CCOc1c(C)c2c(c3c1CC1[C@H]4c5c(cc(C)c(OC)c5OCOCCOC)C[C@@H]([C@H](C#N)N1[C@H]3COC(CSCC1c3ccccc3-c3ccccc31)NC(=O)OCc1ccccc1)N4C)OCO2 (some centres unmarked)	> 1			> 1	
COCCOCOc1c(OC)c(C)cc2c1[C@@H]1C3CC4(O)C(=O)C(C)=C5OCOC5=C4[C@H](COC(CSCC4c5ccccc5-c5ccccc54)NC(=O)OCc4ccccc4)N3[C@@H](C#N)[C@H](C2)N1C (some centres unmarked)	> 1			> 1	
COCCOCOc1c(OC)c(C)cc2c1[C@@H]1C3[C@@H]4SC[C@H](NC(=O)OCc5ccccc5)C(=O)OC[C@@H](c5c6c(c(C)c(OC(C)=O)c54)OCO6)N3[C@@H](C#N)[C@H](C2)N1C (some centres unmarked)	0.59			0.59	
COc1c(C)cc2c(c1O)[C@@H]1C3[C@@H]4SC[C@H](NC(=O)OCc5ccccc5)C(=O)OC[C@@H](c5c6c(c(C)c(OC(C)=O)c54)OCO6)N3[C@@H](C#N)[C@H](C2)N1C (some centres unmarked)	0.0013			0.0013	
C=CCOC(=O)N[C@@H]1CS[C@@H]2c3c(OC(C)=O)c(C)c4c(c3[C@H](COC1=O)N1C2[C@H]2c3c(cc(C)c(OC)c3O)C[C@@H]([C@@H]1C#N)N2C)OCO4 (some centres unmarked)	0.00015				
C=CCOc1c(C)c2c(c3c1CC1[C@H]4c5c(cc(C)c(OC)c5O)C[C@@H]([C@H](C#N)N1[C@H]3CO[Si](C)(C)C(C)(C)C)N4C)OCO2 (some centres unmarked)	> 1			> 1	
C=CCOc1c(C)c2c(c3c1CC1[C@H]4c5c(cc(C)c(OC)c5OCOCCOC)C[C@@H]([C@H](C#N)N1[C@H]3CO[Si](C)(C)C(C)(C)C)N4C)OCO2 (some centres unmarked)	> 1			> 1	
COCCOCOc1c(OC)c(C)cc2c1[C@@H]1C3Cc4c(O)c(C)c5c(c4[C@H](CO[Si](C)(C)C(C)(C)C)N3[C@@H](C#N)[C@H](C2)N1C)OCO5 (some centres unmarked)	> 1			> 1	
COCCOCOc1c(OC)c(C)cc2c1[C@@H]1C3CC4(O)C(=O)C(C)=C5OCOC5=C4[C@H](CO[Si](C)(C)C(C)(C)C)N3[C@@H](C#N)[C@H](C2)N1C (some centres unmarked)	> 1			> 1	
COCCOCOc1c(OC)c(C)cc2c1[C@@H]1C3CC4(O)C(=O)C(C)=C5OCOC5=C4[C@H](CO)N3[C@@H](C#N)[C@H](C2)N1C (some centres unmarked)	> 1			> 1	
C=CCOC(=O)NC(CSCC1c2ccccc2-c2ccccc21)OC[C@H]1C2=C3OCOC3=C(C)C(=O)C2(O)CC2[C@H]3c4c(cc(C)c(OC)c4OCOCCOC)C[C@@H]([C@H](C#N)N21)N3C (some centres unmarked)	> 1			> 1	
C=CCOC(=O)N[C@@H]1CS[C@@H]2c3c(OC(C)=O)c(C)c4c(c3[C@H](COC1=O)N1C2[C@H]2c3c(cc(C)c(OC)c3OCOCCOC)C[C@@H]([C@@H]1C#N)N2C)OCO4 (some centres unmarked)	0.012			0.012	
COCCOc1c(OC)c(C)cc2c1[C@@H]1C3[C@@H]4SC[C@H](NC(=O)OCc5ccccc5)C(=O)OC[C@@H](c5c6c(c(C)c(OC(C)=O)c54)OCO6)N3[C@@H](C#N)[C@H](C2)N1C (some centres unmarked)	0.062			0.062	
